Reference: ChEMBL document CHEMBL5665443, “Enzyme Inhibitor Single Concentration assay results for EUbOPEN Chemogenomics Library” (2024)

How the values were obtained:
Conditions in all cases: Hit No
[1] = biological target: T1, Endonuclease 8-like 2 (Homo sapiens) (UniProt Q969S2);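 further: fluorescence at 594 nm reports NEIL2 cutting and release of a quenched double-stranded DNA oligo substrate, reduced signal read as inhibition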
T1 sequence (whole entry): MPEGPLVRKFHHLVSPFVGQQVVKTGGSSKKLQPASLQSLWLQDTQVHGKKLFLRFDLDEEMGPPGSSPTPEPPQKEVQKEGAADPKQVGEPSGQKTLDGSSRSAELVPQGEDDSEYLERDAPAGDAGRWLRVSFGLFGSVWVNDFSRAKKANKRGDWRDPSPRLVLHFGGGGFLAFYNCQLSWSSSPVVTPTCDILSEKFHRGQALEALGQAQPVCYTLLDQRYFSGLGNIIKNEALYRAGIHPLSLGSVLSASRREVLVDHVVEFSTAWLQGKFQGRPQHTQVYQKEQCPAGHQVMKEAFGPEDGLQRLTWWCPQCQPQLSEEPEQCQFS
Description: Inhibition of NEIL2 by quantifying inhibition of NEIL2-mediated cleavage and dissociation of quenched duplex DNA oligonucleotides, measured as fluorescence at 594 nm.

[2] = biological target: Methyl-CpG-binding domain protein 4 (Homo sapiens) (UniProt O95243);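 further: MBD4 activity read as fluorescence at 594 nm from cleavage and release of a quenched duplex DNA oligonucleotide, with APE1 coupled to incise the strand and raise turnover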
Description: Inhibition of MBD4 by quantifying inhibition of MBD4-mediated cleavage and dissociation of quenched duplex DNA oligonucleotides, measured as fluorescence at 594 nm. To generate a functional strand incision and increase turn-over this assay is coupled to APE1.

[3] = biological target: T2, Endonuclease III-like protein 1 (Homo sapiens) (UniProt P78549);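 further: enzyme assay tracking NTHL1 cutting and release of a quenched double-stranded DNA oligo substrate, read as fluorescence at 594 nm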
T2 sequence (whole entry): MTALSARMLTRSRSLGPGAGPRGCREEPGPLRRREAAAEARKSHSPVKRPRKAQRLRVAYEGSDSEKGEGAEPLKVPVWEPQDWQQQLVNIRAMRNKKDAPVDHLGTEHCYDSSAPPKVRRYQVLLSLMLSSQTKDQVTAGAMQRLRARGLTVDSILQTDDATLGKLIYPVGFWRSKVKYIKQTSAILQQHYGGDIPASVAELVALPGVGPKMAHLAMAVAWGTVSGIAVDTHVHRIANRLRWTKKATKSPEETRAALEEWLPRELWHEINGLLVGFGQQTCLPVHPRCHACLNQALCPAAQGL
Description: Inhibition of NTHL1 by quantifying inhibition of NTHL1-mediated cleavage and dissociation of quenched duplex DNA oligonucleotides, measured as fluorescence at 594 nm.

[4] = biological target: N-glycosylase/DNA lyase (Homo sapiens) (UniProt O15527);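 further: OGG1 cleavage of a quenched duplex DNA oligonucleotide, coupled to APE1 for strand incision, read as fluorescence at 594 nm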
Description: Inhibition of OGG1 by quantifying inhibition of OGG1-mediated cleavage and dissociation of quenched duplex DNA oligonucleotides, measured as fluorescence at 594 nm. To generate a functional strand incision and increase turn-over this assay is coupled to APE1.

[5] = biological target: Uracil-DNA glycosylase (Homo sapiens) (UniProt P13051);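 further: UNG excision on a quenched double-stranded DNA oligo probe, with APE1 added for strand incision and turnover, read as fluorescence at 594 nm as strands separate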
Description: Inhibition of UNG by quantifying inhibition of UNG-mediated cleavage and dissociation of quenched duplex DNA oligonucleotides, measured as fluorescence at 594 nm. To generate a functional strand incision and increase turn-over this assay is coupled to APE1.

[6] = biological target: T3, Single-strand selective monofunctional uracil DNA glycosylase (Homo sapiens) (UniProt Q53HV7);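 further: enzymatic SMUG1 assay coupled with APE1, reading fluorescence at 594 nm released when a quenched double-stranded DNA oligonucleotide substrate is cleaved and separated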
T3 sequence (whole entry): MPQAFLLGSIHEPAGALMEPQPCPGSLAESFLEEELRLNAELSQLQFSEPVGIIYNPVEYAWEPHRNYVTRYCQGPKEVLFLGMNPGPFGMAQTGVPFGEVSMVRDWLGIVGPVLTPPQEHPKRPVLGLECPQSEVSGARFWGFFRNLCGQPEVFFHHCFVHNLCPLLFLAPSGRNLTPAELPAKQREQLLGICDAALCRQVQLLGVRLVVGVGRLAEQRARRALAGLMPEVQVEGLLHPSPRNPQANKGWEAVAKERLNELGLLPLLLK
Description: Inhibition of SMUG1 by quantifying inhibition of SMUG1-mediated cleavage and dissociation of quenched duplex DNA oligonucleotides, measured as fluorescence at 594 nm. To generate a functional strand incision and increase turn-over this assay is coupled to APE1.

[7] = biological target: G/T mismatch-specific thymine DNA glycosylase (Homo sapiens) (UniProt Q13569);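 further: human TDG cleavage of quenched duplex DNA oligonucleotides coupled to APE1, strand release read as fluorescence at 594 nm, inhibition of TDG activity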
Description: Inhibition of TDG by quantifying inhibition of TDG-mediated cleavage and dissociation of quenched duplex DNA oligonucleotides, measured as fluorescence at 594 nm. To generate a functional strand incision and increase turn-over this assay is coupled to APE1.

[8] = biological target: Endonuclease 8-like 1 (Homo sapiens) (UniProt Q96FI4);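 further: fluorescence at 594 nm from quenched duplex DNA oligonucleotides released by NEIL1 cleavage and strand separation, reported as reduction of this enzyme activity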
Endonuclease 8-like 1 (Homo sapiens), sequence (Q96FI4 whole entry): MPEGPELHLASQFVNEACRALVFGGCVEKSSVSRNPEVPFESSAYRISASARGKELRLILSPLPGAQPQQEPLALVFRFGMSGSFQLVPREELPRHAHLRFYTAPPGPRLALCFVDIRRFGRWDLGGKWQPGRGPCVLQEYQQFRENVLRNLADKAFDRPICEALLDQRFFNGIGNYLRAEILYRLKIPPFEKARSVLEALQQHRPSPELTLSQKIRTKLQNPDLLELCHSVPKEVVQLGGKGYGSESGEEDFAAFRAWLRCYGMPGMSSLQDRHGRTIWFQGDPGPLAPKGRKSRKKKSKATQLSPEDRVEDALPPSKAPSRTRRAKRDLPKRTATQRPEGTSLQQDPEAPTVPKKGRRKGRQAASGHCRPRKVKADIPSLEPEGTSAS
Description: Inhibition of NEIL1 by quantifying inhibition of NEIL1-mediated cleavage and dissociation of quenched duplex DNA oligonucleotides, measured as fluorescence at 594 nm.

N-glycosylase/DNA lyase (Homo sapiens), sequence (O15527 whole entry): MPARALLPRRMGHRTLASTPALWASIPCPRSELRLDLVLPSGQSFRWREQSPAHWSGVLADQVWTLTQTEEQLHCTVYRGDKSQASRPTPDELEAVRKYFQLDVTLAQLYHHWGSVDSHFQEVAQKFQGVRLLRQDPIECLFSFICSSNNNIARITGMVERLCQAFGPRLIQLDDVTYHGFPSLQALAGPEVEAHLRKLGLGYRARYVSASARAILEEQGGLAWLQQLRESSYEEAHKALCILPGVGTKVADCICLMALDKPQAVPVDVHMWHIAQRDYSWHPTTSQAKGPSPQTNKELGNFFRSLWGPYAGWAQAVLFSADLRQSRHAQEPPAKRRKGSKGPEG
Methyl-CpG-binding domain protein 4 (Homo sapiens), sequence (O95243 whole entry, the tested form may be a part): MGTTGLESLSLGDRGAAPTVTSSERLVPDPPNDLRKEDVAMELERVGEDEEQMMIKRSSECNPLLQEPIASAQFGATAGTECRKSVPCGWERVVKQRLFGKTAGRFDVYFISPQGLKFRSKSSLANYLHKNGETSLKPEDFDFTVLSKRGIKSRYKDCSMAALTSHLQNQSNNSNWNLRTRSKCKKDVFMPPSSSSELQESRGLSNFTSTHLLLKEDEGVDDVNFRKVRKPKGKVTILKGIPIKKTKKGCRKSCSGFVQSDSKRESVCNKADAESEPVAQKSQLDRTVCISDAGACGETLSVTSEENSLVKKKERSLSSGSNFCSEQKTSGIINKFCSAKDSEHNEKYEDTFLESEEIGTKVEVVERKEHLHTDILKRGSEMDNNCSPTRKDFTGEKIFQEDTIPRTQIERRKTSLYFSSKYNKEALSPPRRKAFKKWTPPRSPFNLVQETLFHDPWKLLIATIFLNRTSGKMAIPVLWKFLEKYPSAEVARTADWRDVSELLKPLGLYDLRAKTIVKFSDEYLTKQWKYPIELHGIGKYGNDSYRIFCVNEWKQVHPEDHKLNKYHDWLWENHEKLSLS
G/T mismatch-specific thymine DNA glycosylase (Homo sapiens), sequence (Q13569 whole entry): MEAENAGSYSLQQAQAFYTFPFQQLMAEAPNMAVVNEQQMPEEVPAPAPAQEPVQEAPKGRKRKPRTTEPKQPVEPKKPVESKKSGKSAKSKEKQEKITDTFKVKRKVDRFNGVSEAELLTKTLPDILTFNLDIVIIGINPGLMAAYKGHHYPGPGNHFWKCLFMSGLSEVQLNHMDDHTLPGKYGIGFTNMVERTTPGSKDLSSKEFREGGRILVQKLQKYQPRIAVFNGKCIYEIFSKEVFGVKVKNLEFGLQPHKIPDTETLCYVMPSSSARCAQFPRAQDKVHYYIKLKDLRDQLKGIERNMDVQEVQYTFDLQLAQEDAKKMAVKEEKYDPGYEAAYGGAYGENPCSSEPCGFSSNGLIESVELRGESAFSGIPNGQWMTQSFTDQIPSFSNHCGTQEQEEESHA
Uracil-DNA glycosylase (Homo sapiens), sequence (P13051 whole entry): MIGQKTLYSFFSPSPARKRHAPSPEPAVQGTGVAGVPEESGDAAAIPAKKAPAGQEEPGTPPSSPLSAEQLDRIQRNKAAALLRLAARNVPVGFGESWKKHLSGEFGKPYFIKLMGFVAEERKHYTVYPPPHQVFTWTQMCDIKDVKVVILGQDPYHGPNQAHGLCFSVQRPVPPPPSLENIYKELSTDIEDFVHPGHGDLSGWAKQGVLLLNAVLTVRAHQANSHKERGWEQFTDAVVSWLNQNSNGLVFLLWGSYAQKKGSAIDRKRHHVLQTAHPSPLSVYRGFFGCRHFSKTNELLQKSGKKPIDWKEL

| SMILES | inhibition ([1]; Compound Concentration 10.0 uM) [%] | inhibition ([2]; Compound Concentration 10.0 uM) [%] | inhibition ([3]; Compound Concentration 10.0 uM) [%] | inhibition ([4]; Compound Concentration 10.0 uM) [%] | inhibition ([5]; Compound Concentration 10.0 uM) [%] | inhibition ([6]; Compound Concentration 10.0 uM) [%] | inhibition ([7]; Compound Concentration 10.0 uM) [%] | inhibition ([8]; Compound Concentration 10.0 uM) [%] | inhibition ([1]; Compound Concentration 1.0 uM) [%] | inhibition ([2]; Compound Concentration 1.0 uM) [%] | inhibition ([3]; Compound Concentration 1.0 uM) [%] | inhibition ([4]; Compound Concentration 1.0 uM) [%] | inhibition ([5]; Compound Concentration 1.0 uM) [%] | inhibition ([6]; Compound Concentration 1.0 uM) [%] | inhibition ([7]; Compound Concentration 1.0 uM) [%] | inhibition ([8]; Compound Concentration 1.0 uM) [%] |
| --- | --- | --- | --- | --- | --- | --- | --- | --- | --- | --- | --- | --- | --- | --- | --- | --- |
| Cn1cc(-c2ccc3occ(-c4ccccc4-c4ccccc4)c3n2)cn1 | 1.31 | -2.48 | -8.28 | -7.06 | 0.982 | 17.5 | 33.2 | 6.35 | – | – | – | – | – | – | – | – |
| C[C@H](NC(=O)Cc1ccc(-c2ccc3cccnc3n2)cc1)c1ccc(-c2ccc(F)c(C(F)(F)F)c2)cc1 | -4.68 | 22.6 | 14.6 | 5.81 | -4.78 | -7.59 | 8.35 | 7.12 | – | – | – | – | – | – | – | – |
| CC(=O)Nc1ccc(-c2cc(-c3ccccc3)nc3cc(C(=O)NCCCn4ccnc4)nn23)cc1 | -6.36 | 52.7 | 3.31 | -1.79 | 5.92 | 10.4 | 38.6 | -3.92 | – | – | – | – | – | – | – | – |
| CNC(=O)c1cc(C(=O)NC2CC2)cn(Cc2ccccc2)c1=O | -1.25 | 59.4 | -1.29 | 10.8 | -2.05 | -2.99 | 29.8 | 8.49 | – | – | – | – | – | – | – | – |
| CC[C@@H]1CN2C(=O)N(C)c3nc(-c4ccccc4)[nH]c3C2=N1 | -3.73 | -6.99 | 7.79 | -8.56 | -9.41 | -6.04 | -6.27 | 0.982 | – | – | – | – | – | – | – | – |
| Cc1cccc(CN2CCN(C(c3ccccc3)c3ccc(Cl)cc3)CC2)c1 (stereo unspecified) | 8.7 | 55.1 | 4.63 | 3.33 | 5.91 | 10.2 | 31.2 | 5.62 | – | – | – | – | – | – | – | – |
| Cc1cc(C(=O)N2CCN(C3CN(C(=O)c4ccc(-c5ccccc5)cc4)C3)CC2)no1 | -4.32 | 49.9 | 1.34 | -2.62 | 2.8 | 21.1 | 35.7 | -3.92 | – | – | – | – | – | – | – | – |
| Cn1c(C2(NC(=O)c3ccc(NCC4CCCCC4)nc3)CCC2)nc2ccc(/C=C/C(=O)O)cc21 | 5.38 | 65.1 | 3.97 | 15 | 7.23 | 15.9 | 57.9 | 2.89 | – | – | – | – | – | – | – | – |
| COC(=O)/C=C/c1cccc(N(Cc2ccc(-c3ccc(N(C)C)cc3)cc2)C(=O)C2CCCCC2)c1 | 3.34 | 53.7 | 7.26 | 7.66 | -3.03 | -4.57 | 44.3 | -4.23 | – | – | – | – | – | – | – | – |
| Cc1cn([C@H](C)CC#N)c(=O)c2cc(Cn3nc(C(F)F)cc3Cl)nn12 | -2.27 | 55.5 | -5.89 | -5.53 | 1.83 | 9.99 | 31.2 | -8.77 | – | – | – | – | – | – | – | – |
| Cc1c(NC(=O)c2cc(C(N)=O)nc3cc(F)ccc23)c(C(F)(F)F)nn1Cc1ccc(C#N)cc1 | 8.19 | 51.7 | -9.83 | 3.97 | 1.44 | 19.9 | 35.6 | -9.07 | – | – | – | – | – | – | – | – |
| CC[C@@H]1[C@H](F)C(=O)N[C@@H]1COc1nccc2cc(C(N)=O)c(OC)cc12 | – | – | – | – | – | – | – | – | -7.57 | 1.45 | 2.88 | -7.95 | -6.54 | 2.52 | 35.2 | -3.17 |
| COc1cccc(Cn2cc(C(=O)Nc3ccc(C)c(S(=O)(=O)N4CCOCC4)c3)c(-c3ccc(C)cc3)n2)c1 | -7.38 | 52.8 | 1.34 | 11.1 | -6.33 | 2.42 | 97.5 | -9.23 | – | – | – | – | – | – | – | – |
| O=C(NCc1ncc(C(F)(F)F)cc1Cl)c1ccc2c(c1)C1(CCS(=O)(=O)CC1)[C@@H](C1CC1)N2S(=O)(=O)c1ccc(F)cc1 | -9.67 | 54.9 | -8.52 | 3.62 | -1.13 | 6.37 | 36.9 | -9.38 | – | – | – | – | – | – | – | – |
| CCOC(=O)c1ccc(C#Cc2ccc3c(c2)C(C)(C)CCS3)nc1 | 2.06 | 50.8 | 3.31 | 22.7 | -5.12 | 8.77 | 98.1 | 1.22 | – | – | – | – | – | – | – | – |
| O=C(NOC[C@H](O)CO)c1ccc(F)c(F)c1Nc1ccc(I)cc1F | – | – | – | – | – | – | – | – | -6.76 | -6.44 | 5.67 | -3.87 | -1.39 | -2.11 | 39.9 | 6.08 |
| FC(F)(F)c1ccc2c(c1)nc(-c1cccnc1)n2C1CC1 | -9.67 | 61.4 | -7.86 | -3.61 | -0.0445 | 3.68 | 39.3 | -3.77 | – | – | – | – | – | – | – | – |
| CN(C)C(=O)Cn1cc(-c2nc([C@@](C)(c3ccc(-c4cnc(N)nc4)cc3)C3CC3)no2)cn1 | – | – | – | – | – | – | – | – | -2.79 | 54.5 | -9.18 | -4.49 | 6.25 | 14.1 | 41 | -7.71 |
| CCCOc1ccc([C@H]2[C@H](C(=O)O)[C@@H](c3ccc4c(c3)OCO4)CN2CC(=O)Nc2c(CC)cccc2CC)cc1 | – | – | – | – | – | – | – | – | 0.276 | 70.6 | -5.23 | 10.2 | 6.95 | 23 | 57.6 | 2.13 |
| CCCCOCCOc1nc(-c2ccc(C(=O)O)c(F)c2)sc1C | 6.14 | 64.4 | -1.29 | 14.4 | 1.01 | 18.1 | 46.5 | 6.68 | – | – | – | – | – | – | – | – |
| C[C@H](NC(=O)c1cn(C2(C#N)CC2)cn1)C(=O)Nc1nc(-c2cccc(-c3ccn(C)n3)c2)cs1 | – | – | – | – | – | – | – | – | -9.67 | 59.5 | -7.2 | -5.28 | 1.27 | 3.85 | 51.4 | -5.74 |
| C=C1/C(=C\C=C2/CCC[C@]3(C)[C@@H]([C@H](C)/C=C/[C@H](C)C(C)C)CC[C@@H]23)C[C@@H](O)C[C@@H]1O | -1.51 | 52.9 | 0.685 | -5.13 | 1.6 | 9.91 | 47.8 | -1.8 | – | – | – | – | – | – | – | – |
| CN1C(=O)[C@@H](N2CCc3c(nn(Cc4ccccc4)c3Br)C2=O)COc2ccccc21 | – | – | – | – | – | – | – | – | -4.38 | 25 | -4.24 | 0.775 | -2.6 | 3.33 | 32.5 | -6.27 |
| Cc1cnc(-c2cc(Cl)ccc2F)cc1-n1c(=O)n(CC(N)=O)c2cnccc21 | -8.34 | 27.6 | -1.49 | 1.02 | 3.5 | 13.4 | 43.1 | -5.82 | – | – | – | – | – | – | – | – |
| COc1ccc(-c2ccc3cc(C(=O)O)ccc3c2)cc1C12CC3CC(CC(C3)C1)C2 | -6.1 | 48.6 | 6.6 | 34.6 | -6.23 | 7.63 | 39.5 | -5.14 | – | – | – | – | – | – | – | – |
| COc1cc(O)c(C(CC(=O)N2C[C@H](C)C[C@H](C)C2)c2ccc3c(c2)OCO3)c(OC)c1 (stereo partly specified) | -7.38 | 55.4 | -3.92 | 10.8 | -0.808 | 8.36 | 58.3 | -4.23 | – | – | – | – | – | – | – | – |
| C=CC(=O)Nc1ccc2[nH]c(=O)n(C3CCN(Cc4ccc(-c5ccc6c(c5)NC(=O)CO6)cc4)CC3)c2c1 | -1.48 | 22.1 | -2.83 | 15.8 | 1.08 | 16.7 | 30.3 | 2.54 | – | – | – | – | – | – | – | – |
